These results are taken from US9657002B2, “Oxindole derivatives carrying an oxetane substituent and use thereof for treating vassopressin-related diseases” (AbbVie Deutschland GmbH & Co. KG, priority 2013, dated 2017).

Some results are limits rather than exact numbers.

Assay [1] has as its target human vasopressin V1a receptor (Homo sapiens, UniProt P37288). Briefly: Vasopressin V1a receptor binding assay. Conditions: selectivity quotient, human V1a vs human V1b.
Assay [2] deals with T1, human vasopressin V1b receptor (Homo sapiens, UniProt P47901).
T1 sequence (P47901 1-424): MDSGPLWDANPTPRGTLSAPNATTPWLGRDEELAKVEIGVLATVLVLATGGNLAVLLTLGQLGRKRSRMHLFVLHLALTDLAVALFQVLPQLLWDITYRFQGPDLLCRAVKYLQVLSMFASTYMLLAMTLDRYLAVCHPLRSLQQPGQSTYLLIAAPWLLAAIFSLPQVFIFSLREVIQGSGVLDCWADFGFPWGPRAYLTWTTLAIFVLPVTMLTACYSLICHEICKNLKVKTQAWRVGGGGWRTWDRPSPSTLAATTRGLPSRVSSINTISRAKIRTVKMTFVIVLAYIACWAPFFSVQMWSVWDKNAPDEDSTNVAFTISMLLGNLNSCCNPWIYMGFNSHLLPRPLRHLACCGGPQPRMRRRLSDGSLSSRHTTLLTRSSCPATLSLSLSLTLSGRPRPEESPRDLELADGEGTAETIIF
Briefly: biochemical.

human vasopressin V1a receptor, sequence (P37288 whole entry): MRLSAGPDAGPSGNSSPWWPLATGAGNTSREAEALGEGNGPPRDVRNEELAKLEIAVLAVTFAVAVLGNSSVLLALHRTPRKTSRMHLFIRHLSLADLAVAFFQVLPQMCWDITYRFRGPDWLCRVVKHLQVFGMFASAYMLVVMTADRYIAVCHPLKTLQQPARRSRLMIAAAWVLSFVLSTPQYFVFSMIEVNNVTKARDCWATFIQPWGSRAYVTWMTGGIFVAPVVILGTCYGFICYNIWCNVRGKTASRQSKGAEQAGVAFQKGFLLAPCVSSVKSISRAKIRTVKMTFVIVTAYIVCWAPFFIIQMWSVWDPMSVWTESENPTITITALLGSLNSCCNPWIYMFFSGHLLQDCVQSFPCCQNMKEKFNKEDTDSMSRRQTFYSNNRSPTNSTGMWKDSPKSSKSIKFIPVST

For the compound `CCOc1ncccc1[C@]1(NC(=O)N2CCN(C3CCN(C4COC4)CC3)CC2)C(=O)N(S(=O)(=O)c2ccc(F)cc2)c2ccc(C#N)cc21` [Example 28, N-[(3S)-5-cyano-3-(2-ethoxy-3-pyridyl)-1-(4-fluorophenyl)sulfonyl-2-oxo-indolin-3-yl]-4-[1-(oxetan-3-yl)-4-piperidyl]piperazine-1-carboxamide], in assay [1], the “Ki(h-V1a)/Ki(h-V1b)” value is “+++ (>75)”. The compound also gave an inhibition constant Ki in assay [2] of 10 to 100 nM.

With `CCOc1ncccc1[C@]1(NC(=O)N2CCN(C3CCN(C4COC4)CC3)CC2)C(=O)N(S(=O)(=O)c2ccc(OC)cc2)c2ccc(C#N)cc21` [Example 24, N-[(3S)-5-cyano-3-(2-ethoxy-3-pyridyl)-1-(4-methoxyphenyl)sulfonyl-2-oxo-indolin-3-yl]-4-[1-(oxetan-3-yl)-4-piperidyl]piperazine-1-carboxamide], in assay [1], the “Ki(h-V1a)/Ki(h-V1b)” value is recorded as “+++ (>75)”. The same compound came in with a Ki in assay [2] of 10 to 100 nM.

On to `CCOc1ncccc1[C@]1(NC(=O)N2CCN(C3CCN(C4(C)COC4)CC3)CC2)C(=O)N(S(=O)(=O)c2ccc(OC)cc2OC)c2ccc(C#N)cc21` [Example 51, (S)—N-(5-cyano-1-((2,4-dimethoxyphenyl)sulfonyl)-3-(2-ethoxypyridin-3-yl)-2-oxoindolin-3-yl)-4-(1-(3-methyloxetan-3-yl)piperidin-4-yl)piperazine-1-carboxamide], for which the “Ki(h-V1a)/Ki(h-V1b)” value in assay [1] is listed as “+++ (>75)”. For the same compound, the Ki in assay [2] was 1 to 10 nM.

For `COc1ccc(S(=O)(=O)N2C(=O)[C@@](NC(=O)N3CCN(C4CCN(C5COC5)CC4)CC3)(c3cccnc3OC(C)C)c3cc(C#N)ccc32)c(OC)c1` [Example 44, N-[(3S)-5-cyano-1-(2,4-dimethoxyphenyl)sulfonyl-3-(2-isopropoxy-3-pyridyl)-2-oxo-indolin-3-yl]-4-[1-(oxetan-3-yl)-4-piperidyl]piperazine-1-carboxamide], the “Ki(h-V1a)/Ki(h-V1b)” value in assay [1] is “+++ (>75)”. Besides, the Ki in assay [2] was 1 to 10 nM.

Turning to `CCOc1ncccc1[C@]1(NC(=O)N2CCN(C3CCN(C4COC4)CC3)CC2)C(=O)N(S(=O)(=O)c2ccc(OC)cc2OC)c2cc(F)c(C#N)cc21` [Example 7A, (S)—N-(5-cyano-1-((2,4-dimethoxyphenyl)sulfonyl)-3-(2-ethoxypyridin-3-yl)-6-fluoro-2-oxoindolin-3-yl)-4-(1-(oxetan-3-yl)piperidin-4-yl)piperazine-1-carboxamide], in assay [1], the “Ki(h-V1a)/Ki(h-V1b)” value was “+++ (>75)”. In assay [2], this compound yielded a Ki of less than 1 nM.

Regarding `COc1ncccc1[C@]1(NC(=O)N2CCN(C3CCN(C4COC4)CC3)CC2)C(=O)N(S(=O)(=O)c2ccc(C#N)cc2F)c2ccc(C#N)cc21` [Example 47, N-[(3S)-5-cyano-1-(4-cyano-2-fluoro-phenyl)sulfonyl-3-(2-methoxy-3-pyridyl)-2-oxo-indolin-3-yl]-4-[1-(oxetan-3-yl)-4-piperidyl]piperazine-1-carboxamide], the “Ki(h-V1a)/Ki(h-V1b)” value in assay [1] is given as “++ (25-75)”. In addition, in assay [2], the Ki fell in the range of 10 to 100 nM.

Take `COc1ccc(S(=O)(=O)N2C(=O)[C@@](NC(=O)N3CCC(C4CCN(C5COC5)CC4)CC3)(c3cccnc3OC)c3cc(C#N)ccc32)c(OC)c1` [Example 27, N-[(3S)-5-cyano-1-(2,4-dimethoxyphenyl)sulfonyl-3-(2-methoxy-3-pyridyl)-2-oxo-indolin-3-yl]-4-[1-(oxetan-3-yl)-4-piperidyl]piperidine-1-carboxamide]: the “Ki(h-V1a)/Ki(h-V1b)” value in assay [1] is given as “+++ (>75)”. This compound also showed a Ki in assay [2] of less than 1 nM.

For `CCOc1ncccc1[C@]1(NC(=O)N2CCC(C3CCN(C4COC4)CC3)CC2)C(=O)N(S(=O)(=O)c2ccc(OC)cc2OC)c2ccc(C#N)cc21` [Example 11, (S)—N-(5-cyano-1-((2,4-dimethoxyphenyl)sulfonyl)-3-(2-ethoxypyridin-3-yl)-2-oxoindolin-3-yl)-1′-(oxetan-3-yl)-[4,4′-bipiperidine]-1-carboxamide], in assay [1], the “Ki(h-V1a)/Ki(h-V1b)” value is listed as “+++ (>75)”. For the same compound, in assay [2], the Ki is less than 1 nM.

In general, Ki refers to a dissociation constant, usually derived from enzyme kinetics or from competition with a known ligand. A higher Ki goes with lower affinity.
